Source: PubChem BioAssay AID1918991 (Molecular Pharmacology Branch, DTP, NCI, 2023)
Each block holds one compound with its values, some of them ahead of it.

System: 186277-243-T-J2-PDC complex spheroid growth
Assay: Anticancer human tumor 186277-243-T-J2-PDC patient-derived colon adenocarcinoma cell line growth inhibition [AhR]
Settings: for IC50: curve of first compound; for viability, T/C: stronger effect = lower value
Method in brief: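 Complex tumor spheroids co-cultured with HUVEC and human MSC stroma; AhR antagonists tested in combination with standard-of-care and investigational agents. Top concentration at or near clinical Cmax (else 10 microM), half-log dilutions; growth expressed as percent test/control.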

[1] = second compound 0.1 µM, first compound 0.0316 µM
[2] = second compound 0.1 µM, first compound 0.1 µM
[3] = second compound 0.1 µM, first compound 0.316 µM
[4] = second compound 0.1 µM, first compound 1 µM
[5] = second compound 0.316 µM, first compound 0.0316 µM
[6] = second compound 0.316 µM, first compound 0.1 µM
[7] = second compound 0.316 µM, first compound 0.316 µM
[8] = second compound 0.316 µM, first compound 1 µM
[9] = second compound 1 µM, first compound 0.0316 µM
[10] = second compound 1 µM, first compound 0.1 µM
[11] = second compound 1 µM, first compound 0.316 µM
[12] = second compound 1 µM, first compound 1 µM
[13] = second compound 3.16 µM, first compound 0.0316 µM
[14] = second compound 3.16 µM, first compound 0.1 µM
[15] = second compound 3.16 µM, first compound 0.316 µM
[16] = second compound 3.16 µM, first compound 1 µM
[17] = second compound 10 µM, first compound 0.0316 µM
[18] = second compound 10 µM, first compound 0.1 µM
[19] = second compound 10 µM, first compound 0.316 µM
[20] = second compound 10 µM, first compound 1 µM
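Note: spheroids exposed to compounds for seven days before the viability read.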
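Throughout, for viability, T/C: luminescent signal used as a stand-in for viable cell amount; 100% = DMSO vehicle control wells.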

IC50 (second compound 0.1 µM): 0.0818 µM
IC50 (second compound 0.316 µM): 0.0845 µM
IC50 (second compound 1 µM): 0.0888 µM
IC50 (second compound 3.16 µM): 0.0752 µM
IC50 (second compound 10 µM): 0.0636 µM
SMILES: CC1COCCN1c1cc(-c2ccnn2C)c2ccnc(-c3ccn[nH]3)c2n1 (stereo not given) + Cc1ccccc1N=Nc1ccc(NC(=O)c2ccnn2C)c(C)c1
viability, T/C (second compound 0.1 µM, first compound 0.00316 µM): 99.9%
viability, T/C (second compound 0.1 µM, first compound 0.01 µM): 105%
viability, T/C [1]: 96.7%
viability, T/C [2]: 40.1%
viability, T/C [3]: 10.2%
viability, T/C [4]: 8.07%
viability, T/C (second compound 0.316 µM, first compound 0.00316 µM): 97.5%
viability, T/C (second compound 0.316 µM, first compound 0.01 µM): 102%
viability, T/C [5]: 93.9%
viability, T/C [6]: 42.4%
viability, T/C [7]: 9.54%
viability, T/C [8]: 7.22%
viability, T/C (second compound 1 µM, first compound 0.00316 µM): 98.8%
viability, T/C (second compound 1 µM, first compound 0.01 µM): 106%
viability, T/C [9]: 100%
viability, T/C [10]: 44.1%
viability, T/C [11]: 9.5%
viability, T/C [12]: 7.1%
viability, T/C (second compound 3.16 µM, first compound 0.00316 µM): 97.7%
viability, T/C (second compound 3.16 µM, first compound 0.01 µM): 104%
viability, T/C [13]: 92.6%
viability, T/C [14]: 35.9%
viability, T/C [15]: 9.1%
viability, T/C [16]: 7.15%
viability, T/C (second compound 10 µM, first compound 0.00316 µM): 77%
viability, T/C (second compound 10 µM, first compound 0.01 µM): 91.9%
viability, T/C [17]: 74.3%
viability, T/C [18]: 33.7%
viability, T/C [19]: 10.4%
viability, T/C [20]: 7.02%

IC50 (second compound 0.1 µM): 2.34 µM
IC50 (second compound 0.316 µM): 2.35 µM
IC50 (second compound 1 µM): 2.18 µM
IC50 (second compound 3.16 µM): 2.2 µM
IC50 (second compound 10 µM): 2.17 µM
SMILES: CC1COCCN1c1cc(C2(S(C)(=N)=O)CC2)nc(-c2ccnc3[nH]ccc23)n1 (stereo not given) + Cc1ccccc1N=Nc1ccc(NC(=O)c2ccnn2C)c(C)c1
viability, T/C [1]: 105%
viability, T/C [2]: 97.8%
viability, T/C [3]: 81.3%
viability, T/C [4]: 90.8%
viability, T/C (second compound 0.1 µM, first compound 3.16 µM): 35.8%
viability, T/C (second compound 0.1 µM, first compound 10 µM): 11.8%
viability, T/C [5]: 99.1%
viability, T/C [6]: 90.2%
viability, T/C [7]: 98.5%
viability, T/C [8]: 97%
viability, T/C (second compound 0.316 µM, first compound 3.16 µM): 33.9%
viability, T/C (second compound 0.316 µM, first compound 10 µM): 11.3%
viability, T/C [9]: 89.4%
viability, T/C [10]: 105%
viability, T/C [11]: 81.8%
viability, T/C [12]: 84.2%
viability, T/C (second compound 1 µM, first compound 3.16 µM): 34%
viability, T/C (second compound 1 µM, first compound 10 µM): 9.66%
viability, T/C [13]: 91.2%
viability, T/C [14]: 83.8%
viability, T/C [15]: 87.6%
viability, T/C [16]: 95.1%
viability, T/C (second compound 3.16 µM, first compound 3.16 µM): 31.8%
viability, T/C (second compound 3.16 µM, first compound 10 µM): 9.83%
viability, T/C [17]: 82.1%
viability, T/C [18]: 87.2%
viability, T/C [19]: 87.5%
viability, T/C [20]: 79.7%
viability, T/C (second compound 10 µM, first compound 3.16 µM): 35.6%
viability, T/C (second compound 10 µM, first compound 10 µM): 10.9%

IC50 (second compound 0.1 µM): 0.494 µM
IC50 (second compound 0.316 µM): 0.506 µM
IC50 (second compound 1 µM): 0.54 µM
IC50 (second compound 3.16 µM): 0.468 µM
IC50 (second compound 10 µM): 0.424 µM
SMILES: O=C(C=Cn1cnc(-c2cc(C(F)(F)F)cc(C(F)(F)F)c2)n1)NNc1cnccn1 + Cc1ccccc1N=Nc1ccc(NC(=O)c2ccnn2C)c(C)c1
viability, T/C (second compound 0.1 µM, first compound 0.00949 µM): 98.7%
viability, T/C (second compound 0.1 µM, first compound 0.03 µM): 107%
viability, T/C (second compound 0.1 µM, first compound 0.0949 µM): 101%
viability, T/C (second compound 0.1 µM, first compound 0.3 µM): 75.4%
viability, T/C (second compound 0.1 µM, first compound 0.949 µM): 16.8%
viability, T/C (second compound 0.1 µM, first compound 3 µM): 8.98%
viability, T/C (second compound 0.316 µM, first compound 0.00949 µM): 94.2%
viability, T/C (second compound 0.316 µM, first compound 0.03 µM): 102%
viability, T/C (second compound 0.316 µM, first compound 0.0949 µM): 108%
viability, T/C (second compound 0.316 µM, first compound 0.3 µM): 77.7%
viability, T/C (second compound 0.316 µM, first compound 0.949 µM): 16.9%
viability, T/C (second compound 0.316 µM, first compound 3 µM): 7.87%
viability, T/C (second compound 1 µM, first compound 0.00949 µM): 92.9%
viability, T/C (second compound 1 µM, first compound 0.03 µM): 106%
viability, T/C (second compound 1 µM, first compound 0.0949 µM): 108%
viability, T/C (second compound 1 µM, first compound 0.3 µM): 82.6%
viability, T/C (second compound 1 µM, first compound 0.949 µM): 18.7%
viability, T/C (second compound 1 µM, first compound 3 µM): 8.79%
viability, T/C (second compound 3.16 µM, first compound 0.00949 µM): 96.4%
viability, T/C (second compound 3.16 µM, first compound 0.03 µM): 88.4%
viability, T/C (second compound 3.16 µM, first compound 0.0949 µM): 106%
viability, T/C (second compound 3.16 µM, first compound 0.3 µM): 71.7%
viability, T/C (second compound 3.16 µM, first compound 0.949 µM): 16.4%
viability, T/C (second compound 3.16 µM, first compound 3 µM): 10.3%
viability, T/C (second compound 10 µM, first compound 0.00949 µM): 90.2%
viability, T/C (second compound 10 µM, first compound 0.03 µM): 88%
viability, T/C (second compound 10 µM, first compound 0.0949 µM): 83.7%
viability, T/C (second compound 10 µM, first compound 0.3 µM): 63%
viability, T/C (second compound 10 µM, first compound 0.949 µM): 20.5%
viability, T/C (second compound 10 µM, first compound 3 µM): 12.7%
